Laboratory results taken from patent EP2054020B1, “COSMETIC COMPOSITION COMPRISING PURINE AND/OR A PURINE DERIVATIVE AND TAURINE” (Henkel AG & Co. KGaA, priority 2006, dated 2008).

Assays:
[1] = tested on: kultivierte dermale Papillenzellen
Source text: Die Bestimmung der Freisetzung von Laktat-Dehydrogenase (LDH) kultivierter Zellen gibt Auskunft über die Schädigung der Zellmembran. In unbeschädigten Zellen ist LDH ausschließlich im Zytoplasma lokalisiert. Erst durch Schädigung der Zellmembran kann LDH in das umgebende Kulturmedium diffundieren. Mit Hilfe eines Substrat-gekoppelten kolorimetrischen Testsystems kann die Menge an freigesetztem LDH bestimmt werden.
Zur Bestimmung möglicher zellschädigender Nebeneffekte wurden kultivierte dermale Papillenzellen mit den in Tabelle 2 aufgeführten Lösungen kultiviert und nach Behandlung die Menge an LDH im Medium analysiert. Es wurde die Zeit bestimmt, die benötigt wird, um eine definierte Menge an Farbstoff umzusetzen. […] Hierbei gilt, dass Werte < 80 % auf mögliche zellschädigende Reaktionen hindeuten.

KGF [2] = assay: Growth factor release (ELISA) from reconstructed dermal papillae: KGF; type: cell-based; conditions: 24 h, Taurin 0,5 %, Coffein 0,025 %; for KGF-Freisetzung Mittelwert: quadruplicates, compared with untreated Kontrolle = 100, spread in brackets; for Steigerung der KGF Ausschüttung: increase over untreated control
Source text: (§1) Die beiden Wachstumsfaktoren Hepatocyte Growth Factor (HGF) und Keratinocyte Growth Factor (KGF) sind wichtige Regulatoren des Haarzyklus. Bei potentiell wachstumsfördemden und den vorzeitigen Haarverlust vermindernden Substanzen kann von einer Steigerung eines der ausgeschütteten Faktoren ausgegangen werden. Die Ausschüttung von HGF sowie KGF kann mit Hilfe von kommerziell erhältlichen ELISA-Kits quantifiziert werden.
(§2) Die Ergebnisse finden sich in Tabelle 5 wieder. Tabelle 5: KGF- und HGF-Freisetzung in [%] nach Behandlung rekonstruierter dermaler Papillen im Vergleich zu unbehandelten Kontrollen.

HGF [3] = assay: Growth factor release (ELISA) from reconstructed dermal papillae: HGF; type: cell-based; conditions: 24 h, Taurin 0,5 %, Coffein 0,025 %; for HGF-Freisetzung Mittelwert: quadruplicates, compared with untreated Kontrolle = 100, spread in brackets; for Steigerung der HGF-Ausschüttung: increase over untreated control
Source text: as §1, §2

KGF [4] = assay: Differential gene expression by qRT-PCR in dermal papilla cells: KGF; type: cell-based; conditions: 24 h, Taurin 0,5 %, Coffein 0,025 %; for KGF Mittelwert: untreated Kontrolle = 1, spread in brackets, 4 biological replicates, >=2 or <=0,5 signifikant, >=1,5 or <=0,6 tendenziell; for Expression von KGF: result in words
Source text: (§3) Tabelle 2: Untersuchte Lösungen
(§4) Hepatocyte Growth Factor (HGF) und Keratinocyte Growth Factor (KGF) sind wichtige Wachstumsfaktoren, die von den dermalen Papillenzellen synthetisiert werden. Im Speziellen stimuliert HGF das Follikelwachstum und KGF die Keratinozytenproliferation. Entsprechend werden HGF und KGF in der Wachstumsphase vermehrt exprimiert.
(§5) Die differentielle Genexpression wurde mittels quantitatitiver Reverse-Transkription Polymerase Kettenreaktion (qRT-PCR) bestimmt. Nach Anzucht der dermalen Papillenzellen wurden jeweils 4 biologische Replikate für 24 h mit den Lösungen gemäß Tabelle 2 inkubiert. Zur Durchführung der qRT-PCR wird zunächst mit Hilfe des RNeasy Mini Kits der Fa. Qiagen die RNA aus den dermalen Papillenzellen isoliert und mittels reverser Transkription in cDNA umgeschrieben. Bei der anschließenden PCR Reaktion, die mit Hilfe genspezifischer Primer für die jeweiligen haarrelevanten Gene durchgeführt wird und die der Amplifikation der gesuchten Genabschnitte dient, wird die Bildung der PCR-Produkte online über ein Fluoreszenzsignal detektiert. Das Fluoreszenzsignal ist dabei proportional zur Menge des gebildeten PCR-Produktes. Je stärker die Expression eines bestimmten Gens ist, desto größer ist die Menge an gebildetem PCR-Produkt und umso höher ist das Fluoreszenzsignal.
(§6) Zur Quantifizierung der Genexpression wird die unbehandelte Kontrolle gleich 1 gesetzt und die Expression der zu bestimmenden Gene darauf bezogen (x-fache Expression). Dabei werden Werte, die größer/gleich der 2-fachen Expression oder kleiner/gleich der 0,5-fachen Expression der unbehandelten Kontrolle sind als signifikant differentiell exprimiert eingestuft. Werte die größer/gleich der 1,5-fachen Expression oder kleiner/gleich der 0,6-fachen Expression der unbehandelten Kontrolle sind, werden als tendenziell differentiell exprimiert eingestuft. Die Ergebnisse sind in Tabelle 4 zusammengefasst.

IGFBP3 = assay: Differential gene expression by qRT-PCR in dermal papilla cells: IGFBP3; type: cell-based; conditions: 24 h, Taurin 0,5 %, Coffein 0,025 %; for IGFBP3 Mittelwert: untreated Kontrolle = 1, spread in brackets, 4 biological replicates, >=2 or <=0,5 signifikant, >=1,5 or <=0,6 tendenziell; for Expression von IGF-BP3: result in words
Source text: as §3
Diesen Eigenschaften gegenüber steht die Expression von IGFBP-3. Dieses Genprodukt führt neben Anderen zu einer.Verschiebung des Zyklus von der Wachstums- zur Regressionsphase. Nach Applikation von Substanzen, die Effekte am biologisch aktiven Teil des Haares hervorrufen, könnte die Bestimmung der Veränderungen der Expression dieses Gens Aussagen über Haarwuchsstimulantien oder -inhibitoren liefern.
as §5, §6

HGF [5] = assay: Differential gene expression by qRT-PCR in dermal papilla cells: HGF; type: cell-based; conditions: 24 h, Taurin 0,5 %, Coffein 0,025 %; for HGF Mittelwert: untreated Kontrolle = 1, spread in brackets, 4 biological replicates, >=2 or <=0,5 signifikant, >=1,5 or <=0,6 tendenziell; for Expression von HGF: result in words
Source text: as §3, §4, §5, §6

Compound | Freisetzung von LDH Mittelwert (%) [1] | zellschädigende Effekte [1] | KGF-Freisetzung Mittelwert (KGF [2]) | Steigerung der KGF Ausschüttung (KGF [2]) [%] | HGF-Freisetzung Mittelwert (HGF [3]) | Steigerung der HGF-Ausschüttung (HGF [3]) [%] | KGF Mittelwert (KGF [4]) | Expression von KGF (KGF [4]) | IGFBP3 Mittelwert (IGFBP3) | Expression von IGF-BP3 (IGFBP3) | HGF Mittelwert (HGF [5]) | Expression von HGF (HGF [5])
NCCS(=O)(=O)O [Taurin, 2-Aminoethansulfonsäure] | 134,1% | weder nach Behandlung mit Taurin oder Coffein allein, noch mit einem Gemisch beider Verbindungen zellschädigende Effekte nachgewiesen werden können | 110(11,5) % | 19 | 152 (29,9) % | 52 | 1,08 (0,12) x-fache Expression | keinen signifikanten Änderungen | 1,41 (0,18) x-fache Expression | keinen signifikanten Änderungen | 1,03 (0,30) x-fache Expression | keinen signifikanten Änderungen
Cn1c(=O)c2c(ncn2C)n(C)c1=O [Coffein, reference compound] |  |  | 119 (9,7) % | 10 | 170 (35,8) % | 70 | 1,44 (0,13) x-fache Expression | tendenzielle Aktivierung | 0,44 (0,07) x-fache Expression | signifikante Deaktivierung | 1,62 (0,46) x-fache Expression | tendenzielle Aktivierung
